Earlier results, collected in patent publication US11225464B2, “Compositions and methods for the treatment of gastrointestinal polyps” (CELLIX BIO PRIVATE LIMITED, priority 2016, dated 2022).

Legend:
colorectal adenomas = details: FAP patients; long-term use; colon as well as rectum of patients after colectomy
duodenal adenomas = details: FAP patients
[1] = long-term users

| Compound | reduction of the number of colorectal adenomas (colorectal adenomas) [%] | effect on duodenal polyposis / number of duodenal adenomas (duodenal adenomas) | cardiovascular effects [1] |
| --- | --- | --- | --- |
| CC1=C(CC(=O)O)c2cc(F)ccc2/C1=C\c1ccc([S+](C)[O-])cc1 (stereo not drawn) [sulindac] | > 50 | not in duodenal polyposis |  |
| CS(=O)(=O)c1ccc(C2=C(c3ccccc3)C(=O)OC2)cc1 [rofecoxib] |  |  | cardiovascular effects (myocardial infarction or stroke) have been described |
